As usually defined, the MIC is the lowest concentration found to suppress growth. Read a low MIC as inhibition by little substance. For orientation: IC50 means the concentration that gives 50% inhibition. Read a high IC50 as lower potency. In general, Ki refers to a dissociation constant, usually derived from enzyme kinetics or from competition with a known ligand. Read a high Ki as weaker binding.

The subject of data set [1] is Escherichia coli. Briefly: Antibacterial activity against Escherichia coli ATCC 25922 after 24 hrs by broth microdilution method. Format: functional. The conditions noted are these: ATCC 25922, 24 h. Background: Dilution methods test growth across graded concentrations, often in twofold steps.
The subject of data set [2] is Staphylococcus epidermidis. Briefly: Antibacterial activity against Staphylococcus epidermidis ATCC 12228 after 24 hrs by broth microdilution method. Format: functional. To be noted: ATCC 12228, 24 h.
The next data set deals with BGC-823. Kind of data set: Cytotoxicity against human BGC823 cells after 24 hrs by MTT assay. In kind it is functional, cell-based.
The next data set has as its system Peritoneal macrophage. Briefly: Anti-inflammatory activity in C57BL6J mouse peritoneal macrophages assessed as inhibition of LPS-induced TNF-alpha secretion at 10 uM after 24 hrs. Format: functional, cell-based.
Data set [3] has as its target T1, Cocaine esterase (Homo sapiens, UniProt O00748).
T1 sequence (O00748 whole entry): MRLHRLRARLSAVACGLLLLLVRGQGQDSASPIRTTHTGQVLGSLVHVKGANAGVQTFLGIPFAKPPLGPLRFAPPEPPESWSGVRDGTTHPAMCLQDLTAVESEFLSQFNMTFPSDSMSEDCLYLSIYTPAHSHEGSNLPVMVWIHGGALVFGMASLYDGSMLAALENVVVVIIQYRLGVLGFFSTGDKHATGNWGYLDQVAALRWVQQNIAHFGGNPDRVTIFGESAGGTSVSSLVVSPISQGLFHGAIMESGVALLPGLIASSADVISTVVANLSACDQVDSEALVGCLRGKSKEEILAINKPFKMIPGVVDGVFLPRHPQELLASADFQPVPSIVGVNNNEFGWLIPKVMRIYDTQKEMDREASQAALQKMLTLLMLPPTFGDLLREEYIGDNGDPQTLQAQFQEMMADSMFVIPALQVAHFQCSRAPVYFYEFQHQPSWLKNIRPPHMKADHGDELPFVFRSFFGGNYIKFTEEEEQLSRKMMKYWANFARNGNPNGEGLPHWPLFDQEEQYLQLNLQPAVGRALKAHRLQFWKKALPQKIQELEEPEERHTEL
Briefly: Inhibition of CE2 in human liver microsomes using fluorescein diacetate as substrate preincubated for 10 mins followed by substrate addition measured after 20 mins by […] assay. In general terms: Liver microsomes are vesicles of endoplasmic reticulum, rich in cytochrome P450 enzymes.

The next data set relates to HCT-8. Briefly: Cytotoxicity against human HCT8 cells after 24 hrs by MTT assay. Format: functional, cell-based. A general note: Tetrazolium assays rely on reduction of a dye to a coloured formazan, in cell work by metabolically active cells.
A further data set concerns Bel-7402. Kind of data set: Cytotoxicity against human Bel7402 cells after 24 hrs by MTT assay. In kind it is functional, cell-based.
The next data set concerns HepG2. Briefly: Protection against acetaminophen-induced cell injury in human HepG2 cells at 10 uM after 24 hrs by MTT assay. In kind it is functional, cell-based.
Data set [4] concerns the target T1, Cocaine esterase. Kind of data set: Competitive inhibition of CE2 in human liver microsomes using fluorescein diacetate as substrate preincubated for 10 mins followed by substrate addition measured after 20 mins by Lineweaver-Burk plot analysis.
The subject of a further data set is A549. Kind of data set: Cytotoxicity against human A549 cells after 24 hrs by MTT assay. In kind it is functional, cell-based.
Data set [5] concerns Mycolicibacterium smegmatis. Briefly: Antibacterial activity against Mycobacterium smegmatis MC2 155 ATCC […] after 24 hrs by broth microdilution method. In kind it is functional.
Data set [6] deals with Staphylococcus aureus. Briefly: Antibacterial activity against Staphylococcus aureus ATCC 25923 after 24 hrs by broth microdilution method. In kind it is functional. To be noted: ATCC 25923, 24 h.
Data set [7] deals with T2, Tyrosine-protein phosphatase non-receptor type 1 (Homo sapiens) (UniProt P18031).
T2 sequence (whole entry): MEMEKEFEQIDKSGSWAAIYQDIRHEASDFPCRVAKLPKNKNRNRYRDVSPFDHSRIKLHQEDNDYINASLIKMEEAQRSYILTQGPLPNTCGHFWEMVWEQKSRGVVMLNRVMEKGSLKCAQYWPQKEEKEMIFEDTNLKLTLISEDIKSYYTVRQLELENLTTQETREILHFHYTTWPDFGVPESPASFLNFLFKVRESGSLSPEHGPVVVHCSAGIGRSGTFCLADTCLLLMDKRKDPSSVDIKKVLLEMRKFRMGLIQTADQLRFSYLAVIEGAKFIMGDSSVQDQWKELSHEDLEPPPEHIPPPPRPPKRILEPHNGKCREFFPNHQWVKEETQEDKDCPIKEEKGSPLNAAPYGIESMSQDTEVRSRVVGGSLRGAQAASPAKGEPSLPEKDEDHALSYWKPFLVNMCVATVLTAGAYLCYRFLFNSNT
Briefly: Inhibition of recombinant human GST-tagged PTP1B at 10 uM using p-NPP as substrate after 10 mins by spectrophotometric method.

Data set [8] has as its target T3, CE2 (carboxylesterase 2; cocaine esterase) (Homo sapiens, UniProt O00748).
T3 sequence (O00748 whole entry): T1 sequence (O00748 whole entry)
Kind of data set: Potency index, ratio of loperamide IC50 to compound IC50 for inhibition of CE2 in human liver microsomes. The conditions noted are these: read-out: Ratio IC50.

The species entered for a further data set is Homo sapiens. Kind of data set: Selectivity ratio of IC50 for inhibition of CE1 in human liver microsomes to IC50 for inhibition of CE2 in human liver microsomes.
For data set [9], the target named is T1, Cocaine esterase. Briefly: Reversible inhibition of CE2 in human liver microsomes up to 120 uM using fluorescein diacetate as substrate preincubated for 10 mins followed by substrate addition measured after 20 mins by […] assay.
A further data set has as its target T4, Liver carboxylesterase 1 (Homo sapiens, UniProt P23141).
T4 sequence (P23141 whole entry): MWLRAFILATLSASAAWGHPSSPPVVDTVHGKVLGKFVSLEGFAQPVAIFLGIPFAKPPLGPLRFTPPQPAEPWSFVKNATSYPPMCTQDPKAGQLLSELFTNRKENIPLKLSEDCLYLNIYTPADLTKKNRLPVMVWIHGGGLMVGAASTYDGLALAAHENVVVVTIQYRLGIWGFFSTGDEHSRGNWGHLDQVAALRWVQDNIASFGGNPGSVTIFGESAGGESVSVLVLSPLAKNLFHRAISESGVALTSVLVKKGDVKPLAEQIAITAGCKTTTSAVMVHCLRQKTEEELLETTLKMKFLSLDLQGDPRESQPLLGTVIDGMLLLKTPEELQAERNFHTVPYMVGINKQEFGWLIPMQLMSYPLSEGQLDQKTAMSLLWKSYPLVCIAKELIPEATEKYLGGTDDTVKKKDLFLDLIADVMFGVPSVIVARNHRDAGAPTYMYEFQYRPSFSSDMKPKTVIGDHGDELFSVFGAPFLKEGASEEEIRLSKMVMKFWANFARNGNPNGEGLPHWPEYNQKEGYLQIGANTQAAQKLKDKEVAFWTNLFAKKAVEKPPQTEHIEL
Kind of data set: Inhibition of CE1 in human liver microsomes using D-Luciferin methyl ester as substrate preincubated for 10 mins followed by substrate addition measured after 10 mins by luminescence assay.

For the next data set, the system named is A2780. Briefly: Cytotoxicity against human A2780 cells after 24 hrs by MTT assay. In kind it is functional, cell-based.
For another data set, the system named is Candida albicans. Briefly: Anti-fungal activity against Candida albicans at 30 ug/disk. Format: functional.
The subject of data set [10] is Escherichia coli. Briefly: Antibacterial activity against Escherichia coli ATCC 25922 at 30 ug/disk. Format: functional.
For data set [11], the system named is Staphylococcus aureus. Briefly: Antibacterial activity against Staphylococcus aureus ATCC 25923 at 30 ug/disk. In kind it is functional.

≈ marks a conversion by molar mass, not a printed value. Calls of active or inactive are those of the source. The rule behind the calls is not given here.

On to `CCCCCCCCC(=O)c1cccc(O)c1-c1cc2c(C(=O)CCCCCCCC)cccc2o1`, for which the MIC (in the data set with Escherichia coli [1]; in data set [2]; in data set [5]; with Staphylococcus aureus [6]) was over 128 mg/L each time. Also, the outcome in the data set with BGC-823, in the data set on HCT-8, in the data set with Bel-7402, with HepG2, with A549 and with A2780 was inactive. Besides, the inhibition result (in the data set with Peritoneal macrophage; in data set [7]) was “inactive” each time. Further, the IC50 at Cocaine esterase [3] was 2.01 µM; on Liver carboxylesterase 1, over 100 µM. The compound also yielded an inhibitory constant (Ki) on Cocaine esterase [4] of 2.34 µM. In data set [8], the selectivity ratio came out at 2. The Ratio IC50 in the data set listed under Homo sapiens is over 49.8. Moreover, the “inhibition (INH)” value against Cocaine esterase [9] is “Active”.
As to `CCCCCCC/C=C1\OC(=O)c2c(O)cccc21`, the MIC (in the data set with Escherichia coli [1]; in [2]; in data set [5]; in the data set with Staphylococcus aureus [6]) was over 128 mg/L in each case. Moreover, the outcome in the data set with BGC-823, in the data set on HCT-8, in the data set on Bel-7402, in the data set with HepG2, with A549 and in the data set on A2780 was inactive. For the same compound, the inhibition entry (in the data set on Peritoneal macrophage; in data set [7]) was “inactive” throughout.
In the data set on Staphylococcus aureus [6], `C[C@H]1COc2c(N3CCN(C)CC3)c(F)cc3c(=O)c(C(=O)O)cn1c23.C[C@H]1COc2c(N3CCN(C)CC3)c(F)cc3c(=O)c(C(=O)O)cn1c23.O` [LEVOFLOXACIN] had an MIC of 0.12 mg/L.
For the compound `C[C@@H]1[C@H](O)[C@@H](C)/C=C/C=C/C=C/C=C/C=C/C=C/C=C/[C@H](O[C@@H]2O[C@H](C)[C@@H](O)[C@H](N)[C@@H]2O)C[C@@H]2O[C@](O)(C[C@@H](O)C[C@@H](O)[C@H](O)CC[C@@H](O)C[C@@H](O)CC(=O)O[C@H]1C)C[C@H](O)[C@H]2C(=O)O` [AMPHOTERICIN B], in the data set with Candida albicans (read-out: DIZ), the zone of inhibition at 30 µg/disc was over 20 mm. For the same compound, the “diameter of the inhibition zone (DIZ)” value in the data set on Escherichia coli [10] and with Staphylococcus aureus [11] was “inactive” each time.
Turning to `CCCCCCCC[C@@H]1OC(=O)c2c(O)cccc21` [PAECILOCIN A], the outcome with BGC-823, in the data set on HCT-8, in the data set on Bel-7402, in the data set on HepG2, in the data set on A549 and in the data set on A2780 was inactive. Moreover, the inhibition entry (with Peritoneal macrophage; in data set [7]) was “inactive” each time. Also, the IC50 was 23.3 µM against Cocaine esterase [3] and over 100 µM against Liver carboxylesterase 1. Also, in the data set filed under Homo sapiens, the Ratio IC50 was over 4.29.
`CCCCCCCCCc1cccc(O)c1C=O`: the MIC against Escherichia coli [1] came out at 32 mg/L (≈ 129 µM); against Staphylococcus aureus [6], 64 mg/L (≈ 258 µM). Moreover, the result in the data set on BGC-823, in the data set on HCT-8, with Bel-7402, in the data set on HepG2, with A549 and in the data set on A2780 was inactive. In addition, the inhibition result (in the data set with Peritoneal macrophage; in data set [7]) was “inactive” throughout.
For the compound `CC1(C)S[C@@H]2[C@H](NC(=O)[C@H](N)c3ccccc3)C(=O)N2[C@H]1C(=O)O` [AMPICILLIN], the “diameter of the inhibition zone (DIZ)” value with Candida albicans was “inactive”. Besides, the values for the zone of inhibition at 30 µg/disc in the data set with Escherichia coli [10] (read-out: DIZ) and with Staphylococcus aureus [11] (read-out: DIZ) were 16 to 20 mm and over 20 mm, respectively.
On to `O=[N+]([O-])c1ccc(OP(=O)(O)Oc2ccc([N+](=O)[O-])cc2)cc1`, for which half-maximal inhibition on Liver carboxylesterase 1 (IC50) was put at 0.21 µM.
